How the values were obtained:
immature female rats [1] = assay: In vivo ovulation model: FSH-matured follicles in immature rats, oocytes in oviduct counted 18 hours after administration; set-up: species or system rat; conditions: FSH pretreated rats
Excerpt: The role of FSH in any ovulation induction regimen is for promoting follicular development and maturation, not ovulation induction.
All injections were subcutaneous. Results are expressed as mean plus or minus standard deviations. […] The effects of Compound 1, a known PDE inhibitor, are shown.
Data represent average number of oocytes in oviducts of all rats in each group and frequency of ovulating rats. […] Results are expressed as mean plus or minus standard deviations.
Data represent average number of oocytes in oviducts of all rats in each group and frequency of ovulating rats. Results are expressed as mean plus or minus standard deviations.
(§1) Following FSH induced follicular maturation (2.16 IU/rat/injection; bid×2 days) Compound 2 was either injected subcutaneously (subcutis) or administered by oral gavage. Ovulation was determined 18 hours after Compound 2 administration by counting oocytes in oviduct. Data represent average number of oocytes in oviducts of all rats in each group and frequency of ovulating rats. Results are expressed as mean plus or minus standard deviations.
as §1, with “days) […] was either” for “days) Compound 2 was either”

[2] = test system: rat ovarian granulosa cells; assay: Rat ovarian granulosa cell cAMP levels in vitro (cAMP RIA of conditioned media); assay type: cell-based; conditions: 25 micromolar compound with sub-effective (0.1 pM) gonadotropin, 48 hrs, FIG. 2
Experimental: Ovaries were removed from immature 25 day old, hypophysectomized, diethylstilbesterol treated Sprague-Dawley rats. The ovaries were repeatedly punctured with 27 gauge needles to liberate granulosa cells from the follicles. Cells were washed and re-suspended in McCoys SA media+0.1% BSA+2 μM androstenedione. Viable cells in number of 100,000 were loaded into 6-well tissue culture dishes in a 1.0 ml volume (with Compound 1 and Compound 2 at a concentration of 25 micromolar, either alone or in conjunction with a low, 0.1 pM dose of gonadotropin). Plates were incubated in a 37° C. incubator, 100% humidity, 5.0% CO2 for 48 hrs. Conditioned media were assayed in a cAMP specific radioimmunoassay (RIA). Results are expressed as mean plus or minus standard deviations.

immature rats = assay: Ovulation and fertility in FSH/PMSG pretreated immature rats; assay type: in vivo, rat; conditions: single subcutaneous injection, FIG. 10
Experimental: Follicular maturation was induced in immature rats with FSH (4.33 IU/rat/injection; bid×2 days) and Pregnant Mare's Serum Gonadotropin (PMSG) (1.5 IU/rat/injection; bid X 2 days). […] FSH and PMSG induced rats were then treated with either Compound 2 (12 rats) or vehicle (12 rats) by subcutaneous administration. In one cohort of rats (6 rats per treatment), ovulation was determined 18 hours after Compound 2 or vehicle administration by counting oocytes in oviduct. To assess fertility, another cohort of rats (6 rats per treatment) were individually placed overnight in a cage together with a single adult male rat of proven fertility. The next day, male rats were removed and the females were caged together by group until the day of parturition. The number of live full-term pups observed at the time of parturition was recorded. […] Results for both ovulation and live pups are expressed as mean plus or minus standard deviations.

immature female rats [3] = assay: Follicle maturation in vivo: co-administration with sub-optimal FSH, then ovulatory hCG, oocytes in oviduct counted; set-up: species or system rat; conditions: FIG. 3
Experimental: Mature ovarian follicles generated in immature female rats by treatment with a sub-optimal dose of FSH (1.08 IU/rat/injection; bid×3 days) with and without co-administration of Compound 1 (0.1, 1, 10, and 50 mg/kg/injection: bid×3 days). […] The PDE inhibitors were given in conjunction with sub-optimal doses of FSH.
All injections were subcutaneously administered. […] Results are expressed as mean plus or minus standard deviations. […] As also noted in FIG. 3, a PDE inhibitor (Compound 1) inhibited (rather than stimulated) both ovulation administered at 50 mg/kg.

[4] = oral gavage, compound alone without hCG
[5] = subcutaneous, compound alone without hCG
[6] = single subcutaneous injection co-administered with sub-effective dose of hCG

SMILES	ovulation (oocytes in oviduct) (immature female rats [1]; [4])	ovulation (oocytes in oviduct) (immature female rats [1]; [5])	cAMP levels [2]	number of live full-term pups at parturition (immature rats; FSH/PMSG pretreated rats mated overnight)	ovulation (oocytes in oviduct) (immature rats; FSH/PMSG pretreated rats, 18 hours)	ovulation (oocytes in oviduct) (immature female rats [3]; 50 mg/kg/injection bid x 3 days s.c. with sub-optimal FSH (1.08 IU), ovulatory hCG 20 IU)	ability of a sub-optimal dose of FSH to prepare follicles to ovulate (immature female rats [3]; increasing doses 0.1, 1, 10, 50 mg/kg/injection bid x 3 days s.c.)	ovulation (oocytes in oviduct) (immature female rats [1]; [6])
CCOc1cc2cc(CO)c(CO)c(-c3ccnc(-n4nc(-c5cccnc5)c5ccccc5c4=O)c3)c2cc1OCC.Cl [Compound 3, 2-(4-(6,7-Diethoxy-2,3-bis(hydroxymethyl)naphthalen-1-yl)pyridin-2-yl)-4-(3-pyridyl)pthalazin-1(2H)-one hydrochloride]	induction of ovulation	induction of ovulation						
COc1ccc(C(=O)Nc2c(Cl)cncc2Cl)cc1OC1CCCC1 [Compound 2, 3-(Cyclopentyloxy)-N-(3,5-dichloropyridin-4-yl)-4-methoxybenzamide]	induction of ovulation	induction of ovulation	significant increase in cAMP levels	increased number of live pups	induction of ovulation			
COc1ccc([C@]2(C#N)CC[C@@H](C(=O)O)CC2)cc1OC1CCCC1 [Compound 1, Cis-4-cyano-4-(3-(cyclopentyloxy)-4-methoxyphenyl)cyclohexane-1-carboxylic acid]		induction of ovulation	significant increase in cAMP levels			inhibited	failed to enhance	induction of ovulation
Clc1nc2c(N3CCCC3)nc(N3CCNCC3)nc2nc1NCc1ccccc1 [Compound 4, 7-Benzylamino-6-chloro-2-piperazino-4-pyrrolidinopteridine]		little or no ovulation						induction of ovulation
